These results are taken from patent publication US5780472A, “Piperazine derivatives and methods for the preparation thereof and compositions containing the same” (Samjin Pharmaceuticazl Co., Ltd., priority 1995, dated 1998).

Each structure is given as a SMILES string. ≈ marks a conversion by molar mass, not a printed value.

Data set [1] has as its system 5 kinds of human solid cancer cell lines. The experiment in a line: In vitro antitumor activity against 5 human solid cancer cell lines compared with cisplatin (SRB assay). The data set is classed as cell-based. Particulars: in words. On the procedure: Antitumor activities of the compounds of present invention were tested. Antitumor activities of compounds of the present invention were tested in vitro against 5 kinds of human tumor cell lines and 2 kinds of leukemia tumor cell lines. The method of in vitro test is as follows.
B. Method of test(SRB Assay Method)
a. Human solid tumor cell lines, […](non-small lung cell), SKMEL-2(melanoma), HCT-15(colon), SKOV-3(ovarian), XF-498(CNS) were cultured at 37° C., in 5% CO2 incubater using the RPMI 1640 media containing 10% FBS, while they were transfer-cultured successively once or twice per week. Cell cultures were dissolved into the solution of 0.25% trypsin and 3 mM CDTA PBS(-) and then cells were separated from media which the cells were sticked on.
b. 5×10^3 -2×10^4 cells were added into each well of 96-well plate and cultured in 5% CO2 incubater, at 37° C., for 24 hours.
c. Each sample drugs was dissolved in a small quantity of DMSO, and diluted to concentrations prescribed in experiment with media, and then the final concentration of DMSO was controlled below 0.5%.
d. A medium of each well cultured for 24 hours as above b., was removed by aspiration. 200 μl of drug samples prepared in c. was added into each well and the wells were cultured for 48 hours. Tz(time zero) plates were collected at the point of time drugs were added.
e. After Tz plates and plates were treated with cell fixing by TCA of SRB assay method, staining of 0.4% SRB solution, washing with 1% acetic acid, OD values were measured at 520 nm, following elution of dye with 10 mM Tris solution.
e. If T≥Tz, cellular response function was calculated with 100×(T-Tz)/(C-Tz), and if T<Tz, with 100×(T-Tz)/Tz.
A general note: The SRB assay estimates cell density from bound dye.

The subject of data set [2] is P388 (mouse lymphoid neoplasma cell). Kind of data set: In vitro antitumor effects against animal leukemia cells (dye exclusion assay), P388. Particulars: Mus musculus, P388, 48 h, 50% cell growth inhibition, 37° C., trypan blue, read-out: ED50 (the source's name). It is filed as cell-based. On the procedure:
P388 (mouse lymphoid neoplasma cell)
(§1) B. Method of Experiment(Dye Exclusion Assay)
(§2) 2) Sample drugs diluted with log dose were added into the cells, and it were cultured at 37° C., for 48 hours, in […] incubater, and then viable cell number was measured, Viable cell number was measured with dye exclusion test using trypan blue.

Data set [3] relates to L1210 (mouse leukemia cell). The experiment in a line: In vitro antitumor effects against animal leukemia cells (dye exclusion assay), L1210. The data set is classed as cell-based. The following applies: Mus musculus, L1210, 48 h, 50% cell growth inhibition, 37° C., trypan blue, read-out: ED50 (the source's name). On the procedure:
L1210(mouse leukemia cell)
as §1, §2

In data set [4] the test system is L1210 and P388 mouse cancer cells. The experiment in a line: In vitro antitumor activity against L1210 and P388 compared with mitomycin C (dye exclusion assay). It is filed as cell-based. The following applies: in words. On the procedure: as §1
1) L-1210 and P388 cells that were cultured in RPMI 1640 media containing 10% FBS were regulated as the cell concentration of 1×10^6 cells/ml.
as §2
3) The concentration of sample compounds of 50% cell growth inhibition compared with standard group was determined as IC50.

A further data set has as its system ICR mice. Kind of data set: Acute toxicity test (LD50), Litchfield-Wilcoxon method. The data set is classed as in vivo, mouse. The arrangement: unit not given here. Particulars: male ICR mice, 14 days.

On to `C#CCNc1cccnc1N1CCN(C(=O)NCc2cc(CC)c(C)nc2OC)CC1` [Example 144, 1-[(5-ethyl-2-methoxy-6-methylpyridin-3-yl)methylaminocarbonyl]-4-[(3-propargylamino)pyridin-2-yl]piperazine], for which the “antitumor activities compared with cisplatin” value in data set [1] was “superior antitumor activities to those of cisplatin”.
For `CCc1cc(NC(=O)N2CCN(c3cc(OC)ccc3C)CC2)c(OC)nc1C` [Example 48, 1-[(5-ethyl-2-methoxy-6-methylpyridin-3-yl)aminocarbonyl]-4-(5-methoxy-2-methylphenyl)piperazine], the figures for the IC50 in data set [2] and in data set [3] were 1.8 µg/mL (≈ 4.52 µM) and 1.9 µg/mL (≈ 4.77 µM), respectively. Further, in data set [1], the “antitumor activities compared with cisplatin” value is “superior antitumor activities to those of cisplatin”. In addition, the “antitumor activities compared with mitomycin C” value in data set [4] is given as “same or more excellent antitumor activities”.
In the case of `CCc1cc(NC(=S)N2CCN(c3cc(OC)cc(OC)c3)CC2)c(OC)nc1C` [Example 100, 1-[(5-ethyl-2-methoxy-6-methylpyridin-3-yl)aminothiocarbonyl]-4-(3,5-dimethoxyphenyl)piperazine], the “antitumor activities compared with cisplatin” value in data set [1] is “superior antitumor activities to those of cisplatin”.
As to `COc1nc(C)c(C)cc1NC(=O)N1CCN(c2cccc(O)c2)CC1` [Example 113], the “antitumor activities compared with cisplatin” value in data set [1] is recorded as “superior antitumor activities to those of cisplatin”.
Still for that read-out and setting: the entry for `COc1cc(OC)cc(N2CCN(C(=S)Nc3cc(C)c(C)nc3OC)CC2)c1` [Example 129, 1-[(5,6-dimethyl-2-methoxypyridin-3-yl)aminothiocarbonyl]-4-(3,5-dimethoxyphenyl)piperazine] is “superior antitumor activities to those of cisplatin”.
Consider `CCc1cc(NC(=O)N2CCN(c3cc(F)cc(F)c3)CC2)c(OC)nc1C` [Example 13, 1-[(5-ethyl-2-methoxy-6-methylpyridine-3-yl)aminocarbonyl]-4-(3,5-difluorophenyl)piperazine], for which the IC50 in data set [2] came to 1.6 µg/mL (≈ 4.1 µM); in data set [3], 1.7 µg/mL (≈ 4.35 µM). In addition, the “antitumor activities compared with cisplatin” value in data set [1] was “superior antitumor activities to those of cisplatin”. Besides, the “antitumor activities compared with mitomycin C” value in data set [4] is recorded as “same or more excellent antitumor activities”.
Take `COc1nc(C)c(C)cc1NC(=O)N1CCN(c2cccc(C)c2C)CC1` [Example 119, 1-[(5,6-dimethyl-2-methoxypyridin-3-yl)aminocarbonyl]-4-(2,3-xylyl)piperazine]: the values for the IC50 in data set [2] and in data set [3] were 2 µg/mL (≈ 5.43 µM) and 2.2 µg/mL (≈ 5.97 µM), respectively. In addition, the “antitumor activities compared with cisplatin” value in data set [1] is listed as “superior antitumor activities to those of cisplatin”.
Take `CCc1cc(NC(=O)N2CCN(c3cccc(OC(C)=O)c3)CC2)c(OC)nc1C` [Example 41, 1-[(5-ethyl-2-methoxy-6-methylpyridin-3-yl)aminocarbonyl]-4-(3-acetoxyphenyl)piperazine]: the figures for the IC50 in data set [2] and in data set [3] were 2 µg/mL (≈ 4.85 µM) and 1.4 µg/mL (≈ 3.39 µM), respectively. Also, in data set [1], the “antitumor activities compared with cisplatin” value is on record as “superior antitumor activities to those of cisplatin”. For the same compound, in data set [4], the “antitumor activities compared with mitomycin C” value was “same or more excellent antitumor activities”.
As to `COc1nc(C)c(C)cc1NC(=S)N1CCN(c2cccc(Cl)c2)CC1` [Example 126, 1-[(5,6-dimethyl-2-methoxypyridin-3-yl)aminothiocarbonyl]-4-(3-chlorophenyl) piperazine], the “antitumor activities compared with cisplatin” value in data set [1] is “superior antitumor activities to those of cisplatin”.
On the same count and under the same terms, to `COc1nc(C)c(C)cc1NC(=O)N1CCN(c2cc(F)cc(F)c2)CC1` [Example 111, 1-[(5,6-dimethyl-2-methoxypyridin-3-yl)aminocarbonyl]-4-(3,5-difluorophenyl)piperazine] belongs “superior antitumor activities to those of cisplatin”.
Turning to `CCc1cc(NC(=O)N2CCN(c3cc(C)ccc3OC)CC2)c(OC)nc1C` [Example 47, 1-[(5-ethyl-2-methoxy-6-methylpyridin-3-yl)aminocarbonyl]-4-(2-methoxy-5-methylphenyl)piperazine], the IC50 in data set [2] and in data set [3] was 0.3 µg/mL (≈ 0.753 µM) throughout. Further, the “antitumor activities compared with cisplatin” value in data set [1] was “superior antitumor activities to those of cisplatin”. Moreover, the “antitumor activities compared with mitomycin C” value in data set [4] is “same or more excellent antitumor activities”.
`CCc1cc(NC(=O)N2CCN(c3cccc(O)c3)CC2)c(OC)nc1C` [Example 38, 1-[(5-ethyl-2-methoxy-6-methylpyridin-3-yl)aminocarbonyl]-4-(3-hydroxyphenyl)piperazine]: the IC50 is 1 µg/mL (≈ 2.7 µM) in data set [2] and 1.4 µg/mL (≈ 3.78 µM) in data set [3]. For the same compound, the “antitumor activities compared with cisplatin” value in data set [1] is “superior antitumor activities to those of cisplatin”. For the same compound, in data set [4], the “antitumor activities compared with mitomycin C” value is “same or more excellent antitumor activities”.
Consider `CCc1cc(NC(=O)N2CCN(c3cccc(Cl)c3)CC2)c(NC)nc1C` [Example 91], for which the “antitumor activities compared with cisplatin” value in data set [1] is given as “superior antitumor activities to those of cisplatin”.
Regarding `CCc1cc(NC(=O)N2CCN(c3cccc(C)c3C)CC2)c(OC)nc1C` [Example 28, 1-[(5-ethyl-2-methoxy-6-methylpyridin-3-yl)aminocarbonyl]-4-(2,3-dimethylphenyl)piperazine], the “antitumor activities compared with cisplatin” value in data set [1] was “superior antitumor activities to those of cisplatin”. Moreover, the LD50 in the data set with ICR mice (i.p.) is on record as > 1,800; in the data set on ICR mice (p.o.), > 2,000.
As for `CCc1cc(NC(=S)N2CCN(c3ccccc3OC)CC2)c(OC)nc1C` [Example 97, 1-[(5-ethyl-2-methoxy-6-methylpyridin-3-yl)aminothiocarbonyl]-4-(2-methoxyphenyl)piperazine], the IC50 in data set [2] stood at 1.6 µg/mL (≈ 3.99 µM); in data set [3] it was 2 µg/mL (≈ 4.99 µM). Moreover, the “antitumor activities compared with cisplatin” value in data set [1] was “superior antitumor activities to those of cisplatin”. The LD50 in the data set with ICR mice (i.p.) is 1,100.
For the compound `CCc1cc(NC(=O)N2CCN(c3cccc(O)c3C)CC2)c(OC)nc1C` [Example 55, 1-[(5-ethyl-2-methoxy-6-methylpyridin-3-yl)aminocarbonyl]-4-(3-hydroxy-2-methylphenyl)piperazine], the “antitumor activities compared with cisplatin” value in data set [1] is given as “superior antitumor activities to those of cisplatin”.
Same read-out and setting: to `COc1nc(C)c(C)cc1NC(=O)N1CCN(c2cccc(OC(C)=O)c2)CC1` [Example 115, 1-[(5,6-dimethyl-2-methoxypyridin-3-yl)aminocarbonyl]-4-(3-acetoxyphenyl)piperazine] belongs “superior antitumor activities to those of cisplatin”.
Regarding `CCc1cc(NC(=S)N2CCN(c3cccc(Cl)c3)CC2)c(OC)nc1C` [Example 98, 1-[(5-ethyl-2-methoxy-6-methylpyridin-3-yl)aminothiocarbonyl]-4-(3-chlorophenyl)piperazine], the IC50 in data set [2] came to 2.1 µg/mL (≈ 5.19 µM); in data set [3], 2 µg/mL (≈ 4.94 µM). Besides, the “antitumor activities compared with cisplatin” value in data set [1] is “superior antitumor activities to those of cisplatin”. Also, the figures for the LD50 with ICR mice (i.p.) and in the data set with ICR mice (p.o.) were > 1,800 and > 2,000, respectively.
As to `COc1ccc(C)c(N2CCN(C(=O)Nc3cc(C)c(C)nc3OC)CC2)c1` [Example 121], the “antitumor activities compared with cisplatin” value in data set [1] was “superior antitumor activities to those of cisplatin”.
As for `COc1nc(C)c(C)cc1NC(=O)N1CCN(c2cccc(Cl)c2)CC1` [Example 109, 1-[(5,6-dimethyl-2-methoxypyridin-3-yl)aminocarbonyl]-4-(3-chlorophenyl)piperazine], the “antitumor activities compared with cisplatin” value in data set [1] is recorded as “superior antitumor activities to those of cisplatin”. For the same compound, the LD50 is listed as 2,000 with ICR mice (i.p.) and > 2,073 in the data set on ICR mice (p.o.).
Consider `CCc1cc(NC(=O)N2CCN(c3cc(OC)ccc3Cl)CC2)c(OC)nc1C` [Example 50, 1-[(5-ethyl-2-methoxy-6-methylpyridin-3-yl)aminocarbonyl]-4-(2-chloro-5-methoxyphenyl)piperazine], for which the IC50 came to 1.5 µg/mL (≈ 3.58 µM) in data set [2] and 2 µg/mL (≈ 4.77 µM) in data set [3]. For the same compound, the “antitumor activities compared with cisplatin” value in data set [1] is on record as “superior antitumor activities to those of cisplatin”.
Turning to `CCc1cc(CNC(=O)N2CCN(c3ccccc3F)CC2)c(OC)nc1C` [Example 61], the “antitumor activities compared with cisplatin” value in data set [1] is reported as “superior antitumor activities to those of cisplatin”. The LD50 in the data set with ICR mice (i.p.) is > 1,687.
